These results are taken from patent publication EP1125946A1, “Cell adhesion therapy through modulation of a Rap family member or of a GEF (guanine nucleotide exchange factor)” (Universitair Medisch Centrum Utrecht, priority 2000, dated 2001).

One assay deals with LFA-1. Kind of assay: flow cytometry of mAB 24 epitope expression on Jurkat cells. Particulars: Jurkat cells coincubated with mAB 24 and 400 µM MnCl2; relative to unstimulated. Format: cell-based. Here is the method: The anti-aL integrin antibody mAB 24 recognizes a conformation-dependent ligand-induced epitope on LFA-1, and induction of the mAB 24 epitope correlates with increased LFA-1 affinity for ICAM (Dransfield and Hogg, 1989). […] This conformational change can also be induced by LFA-1 exposure to Mn^2+, independently of "inside-out" signalling. […] Incubation of cells with mAB 24 at 4°C abolished CD31 and Mn^2+ -induced mAB 24 expression to background levels (data not shown), consistent with the temperature-sensitivity of the mAB 24 epitope (Dransfield and Hogg, 1989). […]
Flow cytometric analysis of transfected cells was performed by cotransfecting Jurkat JHMI cells with […] pCMV-EGFP C1 plasmid (Promega) and the indicated cDNA constructs. […] Fluorescence intensity of EGFP-transfected cells was determined using a FACsCaliber flow cytometer and CellQuest software (both from Becton Dickinson).
Figure 4. […] Cells were sequentially stained with anti-b2 integrin antibody L15 and rabbit anti-mouse Ig-RPE-Cy5 conjugate, and GFP-expressing cells analysed by flow cytometry. […] Alternatively, unstimulated cells were coincubated with mAB 24 and 400 µM MnCl2 (Mn). mAB 24 expression was assessed by flow cytometry, and expression levels normalized to 1 for unstimulated GFP-alone cells in each experiment. […]
(In general: Flow cytometry measures light scatter and fluorescence of single cells or particles in a stream.)

The subject of another assay is Rap1. Kind of assay: GTP-bound GTPase pull-down with GST-RalGDS-RBD and immunoblotting in Jurkat cells. It counts as cell-based. Particulars: Jurkat JHMI 2.2 cells; TPA 100 ng/ml, 5 minutes. The text has this:
(§1) To address which Ras family members, if any, might participate in CD31 signaling, we precipitated endogenous GTPases from lysates of CD31-stimulated Jurkat with GST fusion proteins of Ras family-binding domains (RBDs) of Raf and RalGDS, which bind with high selectivity and specificty to activated Ras and Rap GTPases, respectively (de Rooij and Bos, 1997; Franke et al., 1997). Immunoblotting of precipitated GTPases provides a qualitative representation of GTPase activation status following cell stimulation, corresponding to quantitative changes detected using classical GDP/GTP-binding ratio techniques. […] GTP-bound R-Ras was detected in Raf-RBD pull-downs only following longer exposures of films, reflecting the relatively low levels of R-Ras protein expression in Jurkat. […]
Figure 1. […] Bound GTPases were resolved on SDS-PAGE, transferred to PVDF membrane, and detected by immunoblotting with antibodies against the indicated proteins, followed by enhanced chemiuminescence (ECL). […] Fold activation of Rap1 compared to untreated cells was obtained by quantitating pixels from representative blots using Adobe Photoshop software. […] CD31 WT, CD31 GPI, and Y663/686F Jurkat cell lines were stimulated for two minutes with medium (-) or 10 µg/ml PECAM 1.3 antibody and activated Rap1 detected as in A. Results shown in each panel are representative of three independent experiments.
Background: Immunoblotting shows a protein as a band on a membrane.

The subject of the next assay is Ras. Kind of assay: GTP-bound GTPase pull-down with GST-Raf-RBD and immunoblotting in Jurkat cells. Format: cell-based. The conditions noted are these: Jurkat JHMI 2.2 cells, time-course; TPA 100 ng/ml, 5 minutes.
Description: as §1
Figure 1. […] Bound GTPases were resolved on SDS-PAGE, transferred to PVDF membrane, and detected by immunoblotting with antibodies against the indicated proteins, followed by enhanced chemiuminescence (ECL). […] JHMI cells were activated for 2 minutes with medium (-), anti-CD3 antibody T3b (1:200) or the indicated anti-CD31 antibodies (10 µg/ml), and Rap1 activation detected as in A. Fold activation of Rap1 compared to untreated cells was obtained by quantitating pixels from representative blots using Adobe Photoshop software. […]

The target of assay [1] is catalytic domain of Epac2 (Mus musculus, UniProt Q9EQZ6).
Description: We therefore isolated the regulatory domains of both Epac1 and Epac2 and incubated them with the corresponding catalytic domains.
Protein production was induced in Bl-21 bacteria using 100 nM IPTG for 20 h at room temperature. After protein production, bacteria were pelleted and lyzed in ice-cold PBS containing 1% Triton-X100 and protease inhibitors. The lysate was sonicated three times for 10 seconds and centrifuged at 10,000 x g to remove insoluble material. GST-fusion proteins we purified from the cleared lysate by batch-wise incubation with glutathione-agarose beads (Sigma), eluted from the beads in buffer containing 50 mM Tris pH 7.5, 100 mM NaCl, 10% glycerol and 10mM glutathione and dialyzed for 20 hours in the same buffer without glutathione. When indicated, proteins were cleaved from the GST-tag by incubation with thrombin and purified by gelfiltration.
Briefly, 100 nM of purified GTPase, loaded with fluorescently labeled 2',3'-bis (O) -N-methylantharanoloyl-guanosinediphosphate(mantGDP), was incubated, in the presence of excess unlabelled GDP, with 50 nM of purified GEF unless indicated differently. Release of mGDP was measured in realtime as a decrease in fluorescence. To calculate reaction rates, single exponential functions were fit using the program Grafit3.0 (Eritacus). […]
In assay [2] the target is catalytic domain of Epac1 (Homo sapiens, UniProt O95398).
Description: Next we investigated whether a direct covalent linkage between the catalytic domain and the B-site is essential for this regulation, or whether they can function as separate domains. We therefore isolated the regulatory domains of both Epac1 and Epac2 and incubated them with the corresponding catalytic domains.
For purification of Glutathione S-transferase (GST) -fusion constructs all cDNAs were cloned in pGEX bacterial expression vectors. […] The GST fusion construct of Repac contains amino acids 2-580. The catalytic domain CalDAG-GEFI contains amino acids 3-422. The catalytically active PDZ-GEF1 construct contains amino acids 251-1001. The GST-PKA fusion construct used contained the R1a-subunit of Bovine PKA, lacking amino acids 1-91. Protein production was induced in Bl-21 bacteria using 100 nM IPTG for 20 h at room temperature. After protein production, bacteria were pelleted and lyzed in ice-cold PBS containing 1% Triton-X100 and protease inhibitors. The lysate was sonicated three times for 10 seconds and centrifuged at 10,000 x g to remove insoluble material. […]
Briefly, 100 nM of purified GTPase, loaded with fluorescently labeled 2',3'-bis (O) -N-methylantharanoloyl-guanosinediphosphate(mantGDP), was incubated, in the presence of excess unlabelled GDP, with 50 nM of purified GEF unless indicated differently. Release of mGDP was measured in realtime as a decrease in fluorescence. […]
In a further assay the target is T1, full length CalDAG-GEF 1 (Homo sapiens, UniProt Q7LDG7).
T1 construct: To that end full length CalDAG-GEF 1 and a CalDAG-Gef mutants lacking the regulatory domain was compared
T1 sequence (Q7LDG7 1-609): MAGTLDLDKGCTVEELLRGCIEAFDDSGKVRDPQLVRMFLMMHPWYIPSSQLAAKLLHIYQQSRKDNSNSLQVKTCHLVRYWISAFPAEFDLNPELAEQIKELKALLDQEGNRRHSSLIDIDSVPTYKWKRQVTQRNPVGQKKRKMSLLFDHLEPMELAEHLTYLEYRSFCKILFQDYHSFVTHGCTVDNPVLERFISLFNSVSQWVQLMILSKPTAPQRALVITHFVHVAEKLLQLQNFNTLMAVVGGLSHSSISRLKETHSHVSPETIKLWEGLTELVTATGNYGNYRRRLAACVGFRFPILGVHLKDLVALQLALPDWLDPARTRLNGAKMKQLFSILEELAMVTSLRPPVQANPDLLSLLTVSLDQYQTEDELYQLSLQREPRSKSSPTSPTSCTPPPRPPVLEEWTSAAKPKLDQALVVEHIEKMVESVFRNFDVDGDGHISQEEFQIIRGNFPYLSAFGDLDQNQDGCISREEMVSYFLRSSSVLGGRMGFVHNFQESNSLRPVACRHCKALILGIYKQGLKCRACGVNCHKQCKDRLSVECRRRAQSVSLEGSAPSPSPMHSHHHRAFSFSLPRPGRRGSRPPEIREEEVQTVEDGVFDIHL
Description: in vitro activation of Rap1 (mantGDP-loaded) by full length CalDAG-GEF versus mutant lacking the regulatory domain. It counts as biochemical. The conditions noted are these: 100 µM calcium added; compared with mutant lacking the regulatory domain. Here is the method:
We therefore investigated whether CalDAG-GEF was regulated by an auto-inhibitory domain. To that end full length CalDAG-GEF 1 and a CalDAG-Gef mutants lacking the regulatory domain was compared for in vitro activation of Rap1.
Figure 9. CalDAG-GEF contains an autoinhibitory domain regulated by calcium. Equal amounts of CalDAG-GEF and mutant CalDAG-GEF lacking the DAG and Ca binding domains were incubayed with mantGDP-loaded Rap1 and incubated in the presence or absence of 100 µM calcium.

Sequence of catalytic domain of Epac2 (Q9EQZ6 478-1011): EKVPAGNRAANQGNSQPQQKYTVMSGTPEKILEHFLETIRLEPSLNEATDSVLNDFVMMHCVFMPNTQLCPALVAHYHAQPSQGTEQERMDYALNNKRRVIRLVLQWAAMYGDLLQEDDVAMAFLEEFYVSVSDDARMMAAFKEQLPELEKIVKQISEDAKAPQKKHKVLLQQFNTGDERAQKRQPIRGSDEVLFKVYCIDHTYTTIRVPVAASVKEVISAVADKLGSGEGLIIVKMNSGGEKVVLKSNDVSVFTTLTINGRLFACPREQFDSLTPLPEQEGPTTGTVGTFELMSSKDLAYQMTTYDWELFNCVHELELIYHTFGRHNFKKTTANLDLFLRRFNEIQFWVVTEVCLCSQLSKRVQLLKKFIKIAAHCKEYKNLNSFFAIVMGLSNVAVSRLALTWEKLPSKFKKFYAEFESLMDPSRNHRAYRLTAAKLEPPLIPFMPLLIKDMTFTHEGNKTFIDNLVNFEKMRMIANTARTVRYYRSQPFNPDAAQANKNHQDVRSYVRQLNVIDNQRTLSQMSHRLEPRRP
Sequence of catalytic domain of Epac2 (Q9EQZ6 1-463 isoform Q9EQZ6-3 partner): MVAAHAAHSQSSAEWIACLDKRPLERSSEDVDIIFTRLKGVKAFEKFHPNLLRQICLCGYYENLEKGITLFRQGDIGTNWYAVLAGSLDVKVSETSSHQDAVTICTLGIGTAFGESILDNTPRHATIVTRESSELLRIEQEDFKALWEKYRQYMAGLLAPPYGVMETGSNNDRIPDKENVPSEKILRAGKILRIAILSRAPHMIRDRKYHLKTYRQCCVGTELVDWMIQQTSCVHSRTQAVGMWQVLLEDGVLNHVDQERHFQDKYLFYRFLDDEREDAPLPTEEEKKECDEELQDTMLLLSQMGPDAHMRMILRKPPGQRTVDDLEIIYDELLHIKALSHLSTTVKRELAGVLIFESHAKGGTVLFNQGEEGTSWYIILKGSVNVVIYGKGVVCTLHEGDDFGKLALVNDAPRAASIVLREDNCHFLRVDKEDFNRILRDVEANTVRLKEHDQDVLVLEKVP
Sequence of catalytic domain of Epac1 (O95398 44-371): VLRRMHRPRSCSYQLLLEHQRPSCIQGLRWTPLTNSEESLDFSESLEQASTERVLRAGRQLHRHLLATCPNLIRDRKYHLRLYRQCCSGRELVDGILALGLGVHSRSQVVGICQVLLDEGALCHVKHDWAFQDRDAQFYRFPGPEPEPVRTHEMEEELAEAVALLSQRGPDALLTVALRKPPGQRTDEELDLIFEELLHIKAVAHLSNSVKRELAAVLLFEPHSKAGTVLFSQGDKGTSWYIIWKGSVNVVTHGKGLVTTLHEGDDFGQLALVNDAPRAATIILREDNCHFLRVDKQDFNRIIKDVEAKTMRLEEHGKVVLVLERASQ

With `[Cl][Mn][Cl]` [Mn^2+, MnCl2], in the assay with LFA-1, the “increase in mAB 24 expression” value is on record as 2.25-2.5 fold.
For `CCCCCCCCCCCCCC(=O)O[C@@H]1[C@@H](C)[C@@]2(O)[C@@H](C=C(CO)C[C@]3(O)C(=O)C(C)=C[C@@H]23)[C@@H]2C(C)(C)[C@]12OC(C)=O` [TPA], the “activation of Rap1” value with Rap1 is given as “activated”. The “activation of Ras” value in the assay on Ras is “activated”.
For the compound `Nc1ncnc2c1ncn2[C@@H]1O[C@@H]2COP(=O)(O)O[C@H]2[C@H]1O` [cAMP], the “effect on inhibition of the catalytic domain by the regulatory domain” value in assay [1] and in assay [2] was “abolishes the inhibitory effect” throughout.
As for `[Ca+2]` [calcium], the “efficiency of full length CalDAG-GEF in activating Rap1” value on full length CalDAG-GEF 1 was “became as efficient as the mutant”.
